# Reference: patent US12540120B2, “Herbicidal compounds” (SYNGENTA CROP PROTECTION AG, priority 2019, dated 2026)
# How the values were obtained:
# Format in all cases: in vivo
# [1] = test system: Amaranthus retoflexus (AMARE); assay: B2 Post-Emergence Efficacy—Test 2; conditions: post-emergence application, 250 g/ha, evaluated after 13 days (Test 2)
# Procedure: (§1) B2 Post-Emergence Efficacy—Test 2 Seeds of a variety of test species are sown in standard soil in pots:—Solanum nigrum (SOLNI), Amaranthus retoflexus (AMARE), Setaria faberi (SETFA), Echinochloa crus-galli (ECHCG), Ipomoea hederacea (IPOHE), Lolium perenne (LOLPE). After 8 days cultivation (post-emergence) under controlled conditions in a glasshouse (at 24/16° C., day/night; 14 hours light; 65% humidity), the plants are sprayed with an aqueous spray solution derived from the formulation of the technical active ingredient in acetone/water (50:50) solution containing 0.5% Tween 20 (polyoxyethylene sorbitan monolaurate, CAS RN 9005-64-5). Compounds are applied at 250 g/ha. The test plants are then grown in a glasshouse under controlled conditions in a glasshouse (at 24/16° C., day/night; 14 hours light; 65% humidity) and watered twice daily. After 13 days, the test is evaluated for the percentage damage caused to the plant. The biological activities are assessed on a five point scale (5=80-100%; 4=60-79%; 3=40-59%; 2=20-39%; 1=0-19%). A blank value in the table is indicative that the compound was not tested on that species.
# [2] = test system: Echinochloa crus-galli (ECHCG); assay: B2 Post-Emergence Efficacy—Test 2; conditions: post-emergence application, 250 g/ha, evaluated after 13 days (Test 2)
# Procedure: as §1
# [3] = test system: Ipomoea hederacea (IPOHE); assay: B2 Post-Emergence Efficacy—Test 2; conditions: post-emergence application, 250 g/ha, evaluated after 13 days (Test 2)
# Procedure: as §1
# Lolium perenne (LOLPE) [4] = assay: B2 Post-Emergence Efficacy—Test 2; conditions: post-emergence application, 250 g/ha, evaluated after 13 days (Test 2)
# Procedure: as §1
# Setaria faberi (SETFA) [5] = assay: B2 Post-Emergence Efficacy—Test 2; conditions: post-emergence application, 250 g/ha, evaluated after 13 days (Test 2)
# Procedure: as §1
# Solanum nigrum (SOLNI) [6] = assay: B2 Post-Emergence Efficacy—Test 2; conditions: post-emergence application, 250 g/ha, evaluated after 13 days (Test 2)
# Procedure: as §1
# [7] = test system: Amaranthus retoflexus (AMARE); assay: B5 Pre-Emergence Efficacy—Test 2; conditions: 250 g/ha, evaluated after 13 days
# Procedure: (§2) B5 Pre-Emergence Efficacy—Test 2 Seeds of a variety of test species were sown in standard soil in pots: Solanum nigrum (SOLNI), Amaranthus retoflexus (AMARE), Setaria faberi (SETFA), Echinochloa crus-galli (ECHCG), Ipomoea hederacea (IPOHE), Lolium perenne (LOLPE). After cultivation for one day (pre-emergence) under controlled conditions in a glasshouse (at 24/16° C., day/night; 14 hours light; 65% humidity), the plants were sprayed with an aqueous spray solution derived from the formulation of the technical active ingredient in acetone/water (50:50) solution containing 0.5% Tween 20 (polyoxyethelyene sorbitan monolaurate, CAS RN 9005-64-5). Compounds are applied at 250 g/ha. The test plants were then grown in a glasshouse under controlled conditions (at 24/16° C., day/night; 14 hours light; 65% humidity) and watered twice daily. After 13 days, the test is evaluated for the percentage damage caused to the plant. The biological activities are assessed on a five point scale (5=80-100%; 4=60-79%; 3=40-59%; 2=20-39%; 1=0-19%). A blank value in the table is indicative that the compound was not tested on that species.
# Solanum nigrum (SOLNI) [8] = assay: B5 Pre-Emergence Efficacy—Test 2; conditions: 250 g/ha, evaluated after 13 days
# Procedure: as §2
# [9] = test system: Echinochloa crus-galli (ECHCG); assay: B5 Pre-Emergence Efficacy—Test 2; parameters: key: 5-point scale: 5=80-100%, 4=60-79%, 3=40-59%, 2=20-39%, 1=0-19% damage; conditions: 250 g/ha, evaluated after 13 days
# Procedure: as §2
# [10] = test system: Ipomoea hederacea (IPOHE); assay: B5 Pre-Emergence Efficacy—Test 2; parameters: key: 5-point scale: 5=80-100%, 4=60-79%, 3=40-59%, 2=20-39%, 1=0-19% damage; conditions: 250 g/ha, evaluated after 13 days
# Procedure: as §2
# Lolium perenne (LOLPE) [11] = assay: B5 Pre-Emergence Efficacy—Test 2; parameters: key: 5-point scale: 5=80-100%, 4=60-79%, 3=40-59%, 2=20-39%, 1=0-19% damage; conditions: 250 g/ha, evaluated after 13 days
# Procedure: as §2
# Setaria faberi (SETFA) [12] = assay: B5 Pre-Emergence Efficacy—Test 2; parameters: key: 5-point scale: 5=80-100%, 4=60-79%, 3=40-59%, 2=20-39%, 1=0-19% damage; conditions: 250 g/ha, evaluated after 13 days
# Procedure: as §2
SMILES,"percentage damage caused to the plant, five point scale, AMARE [1]","percentage damage caused to the plant, five point scale, ECHCG [2]","percentage damage caused to the plant, five point scale, IPOHE [3]","percentage damage caused to the plant, five point scale, LOLPE (Lolium perenne (LOLPE) [4])","percentage damage caused to the plant, five point scale, SETFA (Setaria faberi (SETFA) [5])","percentage damage caused to the plant, five point scale, SOLNI (Solanum nigrum (SOLNI) [6])","Control of weed species after pre-emergence application, AMARE (percentage damage, five point scale) [7]","Control of weed species after pre-emergence application, SOLNI (percentage damage, five point scale) (Solanum nigrum (SOLNI) [8])","Control of weed species after pre-emergence application, ECHCG (percentage damage, five point scale) [9]","Control of weed species after pre-emergence application, IPOHE (percentage damage, five point scale) [10]","Control of weed species after pre-emergence application, LOLPE (percentage damage, five point scale) (Lolium perenne (LOLPE) [11])","Control of weed species after pre-emergence application, SETFA (percentage damage, five point scale) (Setaria faberi (SETFA) [12])"
Cc1cc(CCc2c(Cl)ccc(F)c2-c2c(O)c(C)nn(C)c2=O)ccc1N [Compound A-1.031],5 (5=80-100%),4 (4=60-79%),4 (4=60-79%),4 (4=60-79%),4 (4=60-79%),5 (5=80-100%),3 (3=40-59%),2 (2=20-39%),2 (2=20-39%),1 (1=0-19%),1 (1=0-19%),1 (1=0-19%)
Cc1nn(C)c(=O)c(-c2c(F)ccc(Cl)c2CCc2ccc(S(C)(=O)=O)cc2)c1O [Compound A-1.032],5 (5=80-100%),5 (5=80-100%),5 (5=80-100%),5 (5=80-100%),5 (5=80-100%),5 (5=80-100%),5 (5=80-100%),5 (5=80-100%),5 (5=80-100%),2 (2=20-39%),5 (5=80-100%),5 (5=80-100%)
Cc1nn(C)c(=O)c(-c2c(F)ccc(Cl)c2CCc2ccc(N(C)C)cc2)c1O [Compound A-1.033],5 (5=80-100%),4 (4=60-79%),5 (5=80-100%),5 (5=80-100%),5 (5=80-100%),5 (5=80-100%),1 (1=0-19%),1 (1=0-19%),0,1 (1=0-19%),1 (1=0-19%),2 (2=20-39%)
CNc1ccc(CCc2c(Cl)ccc(F)c2-c2c(O)c(C)nn(C)c2=O)cc1 [Compound A-1.034],5 (5=80-100%),1 (1=0-19%),5 (5=80-100%),5 (5=80-100%),5 (5=80-100%),5 (5=80-100%),0,2 (2=20-39%),0,0,0,0
Cc1nn(C)c(=O)c(-c2c(F)ccc(Cl)c2CCc2ccc(OC(C)(C)C)cc2)c1O [Compound A-1.035],4 (4=60-79%),4 (4=60-79%),4 (4=60-79%),4 (4=60-79%),4 (4=60-79%),5 (5=80-100%),4 (4=60-79%),3 (3=40-59%),1 (1=0-19%),1 (1=0-19%),3 (3=40-59%),3 (3=40-59%)
Cc1nn(C)c(=O)c(-c2c(F)ccc(Cl)c2CCc2ccc(O)cc2)c1O [Compound A-1.037],1 (1=0-19%),3 (3=40-59%),5 (5=80-100%),1 (1=0-19%),5 (5=80-100%),5 (5=80-100%),1 (1=0-19%),2 (2=20-39%),2 (2=20-39%),0,0,0
Cc1nn(C)c(=O)c(-c2c(F)ccc(Cl)c2CCc2ccc(C3CC3)cc2)c1O [Compound A-1.038],5 (5=80-100%),5 (5=80-100%),5 (5=80-100%),5 (5=80-100%),5 (5=80-100%),5 (5=80-100%),5 (5=80-100%),5 (5=80-100%),5 (5=80-100%),2 (2=20-39%),5 (5=80-100%),0
"CSc1ccc(CCc2c(Cl)ccc(F)c2-c2c(O)c(C)nn(C)c2=O)cc1 [Compound A-1.039, 4-[3-chloro-6-fluoro-2-[2-(4-methylsulfanylphenyl)ethyl]-phenyl]-5-hydroxy-2,6-dimethyl-pyridazin-3-one]",5 (5=80-100%),5 (5=80-100%),5 (5=80-100%),5 (5=80-100%),5 (5=80-100%),5 (5=80-100%),5 (5=80-100%),5 (5=80-100%),5 (5=80-100%),3 (3=40-59%),4 (4=60-79%),5 (5=80-100%)
